Measured values as given in patent US20080161607A1 (Teva Pharmaceuticals USA, Inc., priority 2002, published 2008).

Assays:
[1] = Storage stability of bulk sertraline hydrochloride Form II; polymorph content by XRPD; details: for Polymorph Content of bulk sertraline hydrochloride, content of Form I (in parentheses) / Polymorph Content of bulk sertraline hydrochloride, Polymorphic Form detected (I or II): 40° C., 75% RH; for Polymorph Content of bulk sertraline hydrochloride, content of Form I (in parentheses): Form I relative to all sertraline hydrochloride
Excerpt: X-Ray powder diffraction data was obtained by using a SCINTAG powder X-Ray diffractometer model X′TRA equipped with a solid state detector. Copper radiation of 1.5418 Å was used. The diffractometer was equipped with a round aluminum sample holder with round zero background quartz plate having a cavity of 25(diameter)*0.5(depth) mm.

[2] = granulation in isopropyl alcohol, ethyl acetate, hexane at 40 E to 60 E C; disclosed in U.S. Pat. No. 5,248,699; cited from earlier work

Q: Which “stability during storage under stress conditions” value ([1]; Form II containing at least about 1% w/w Form I) does the source give for CN[C@H]1CC[C@@H](c2ccc(Cl)c(Cl)c2)c2ccccc21.Cl [sertraline hydrochloride] here?
A: The value was “not stable”.

Q: For CN[C@H]1CC[C@@H](c2ccc(Cl)c(Cl)c2)c2ccccc21.Cl [Example 1, (1S-cis)-4-(3,4 dichlorophenyl)-1,2,3,4-tetrahydro-N-methyl-1-naphthalenamine hydrochloride], which “Polymorph Content of bulk sertraline hydrochloride, content of Form I (in parentheses)” value (from here on “Polymorph Content … (in parentheses)”) ([1]; 1 month) is on record?
A: Its value is < 1%.

Q: What about the “Polymorph Content of bulk sertraline hydrochloride, Polymorphic Form detected (I or II)” value (shortened to “Polymorph Content … (I or II)”) ([1]; 1 month, hydrochloride) of the same compound?
A: The value was “II > I”.

Q: What about the “Polymorph Content … (in parentheses)” value ([1]; 2 months) of the same compound?
A: Its value is 2%.

Q: What about the “Polymorph Content … (I or II)” value ([1]; 2 months, hydrochloride) of the same compound?
A: Its value is “II > I”.

Q: And the “Polymorph Content … (I or II)” value ([1]; 3 months)?
A: Its value is “II > I”.

Q: What about the “Polymorph Content … (in parentheses)” value ([1]; 3 months) of the same compound?
A: Its value is 2%.

Q: What about the “Polymorph Content … (I or II)” value ([1]; 4 months) of the same compound?
A: Its value is “II > I”.

Q: And the “Polymorph Content … (in parentheses)” value ([1]; 4 months)?
A: Its value is 4%.

Q: What about the “Polymorph Content … (in parentheses)” value ([1]; t = 0) of the same compound?
A: The value was < 1%.

Q: What about the “Polymorph Content … (I or II)” value ([1]; t = 0, hydrochloride) of the same compound?
A: The value was “II > I”.

Q: For CN[C@H]1CC[C@@H](c2ccc(Cl)c(Cl)c2)c2ccccc21.Cl [Form II, (1S-cis)-4-(3,4 dichlorophenyl)-1,2,3,4-tetrahydro-N-methyl-1-naphthalenamine hydrochloride], which result of granulation [2] is on record?
A: Its result of granulation is “conversion to Form I”.
